Data set [1] deals with cathepsin L. The conditions noted are these: selective over cathepsins B and K; cited from earlier work.
A short description of data set [2]: Stability of MPI8 in rat plasma (QC samples, LC-MS/MS). Type of data set: in vitro ADME. Here is the method:
The quantification of MPI8 concentrations in extracted plasma samples was performed on a 6500+ Triple Quad LC-MS/MS System using a Kinetex HILIC Column (unbonded silica stationary phase, 2.6 µm, 50 × 2.1 mm, 100 Å, Phenomenex, CA, USA). The optimized method used binary gradient mobile phases with water (containing 1 mM ammonium acetate) as mobile phase A and acetonitrile as mobile phase B. A flow rate of 0.4 mL/min was used with an injection volume of 2 μL. The autosampler and oven temperature were set at 10 °C and 30 °C, respectively. The running time was 5 min. In this study, the HILIC column, widely considered as an NP column, was eluted in a typical RP time program of the gradient: Phase B was initially kept at 5% for 0.2 min, increased from 5% to 90% in the next 1.3 min, then held at 90% for 1 min, and then decreased to 5% in 1.5 min, and kept stably at 5% for 1 min. The unique behavior of MPI8 on a HILIC column, which resembles an RP characteristic, was most likely due to its hydrophobic nature.
Eighteen microliters of blank rat plasma, 2 μL of working solution (10×) (or 20 μL of rat plasma samples from pharmacokinetic studies), and 180 μL of acetonitrile (containing 5 ng/mL of IS) were vortex-mixed for 2 min and then centrifuged at 14,000 rpm for 20 min at 4 °C. Eighty μL of the supernatant were transferred to a sample vial for LC-MS/MS analysis. All samples were kept on ice during sample processing.
The stability of MPI8 was examined by keeping four replicates of the QC samples at room temperature and on ice for 4 h, in the auto-sampler tray at 10 °C for 24 h, and in a freezer at −80 °C for 3 weeks; the freeze-thaw stability was obtained over three freeze-thaw cycles, by thawing at 4 °C for 2–3 h and then refreezing at −80 °C for 12–24 h. The concentration of MPI8 after each storage period was determined using the calibration curve analyzed on the same day. The accuracy was expressed by RE%, and the precision was CV%.

Data set [3] in a line: Crossover pharmacokinetic study in rats after IV or oral MPI8 sulfonate. The format is in vivo, Sprague-Dawley rats. The conditions noted are these: for AUC(0-t): read-out: AUC0−10 h; for Cmax: po. From the text: The validated assay was applied in a crossover pharmacokinetic study to evaluate the oral bioavailability of MPI8 sulfonate in rats. The animal study protocol (#9132) was reviewed and approved by the Institutional Animal Care and Use Committee (IACUC) at Texas Southern University on 11 July 2020.
Male adult Sprague-Dawley rats were purchased from Envigo RMS (Indianapolis, IN, USA). Rats were cannulated via jugular vein a day before dosing. Three rats were intravenously administered a single dose of 5 mg/kg MPI8 sulfonate (5 mg/mL in 5% dextrose) via the jugular vein. Serial blood samples (about 0.1 mL) were collected from the cannulated jugular vein into heparin-coating tubes before dosing and at 2 min, 5 min, 15 min, 0.5 h, 1 h, 2 h, 4 h, 6 h, 8 h, 10 h, and 24 h time points after administration. After two weeks of washout period, the three rats were fasted overnight and orally administered a single dose of 50 mg/kg MPI8 sulfonate (20 mg/mL in water). Blood samples were collected before dosing and at 15 min, 0.5 h, 1 h, 1.5 h, 2 h, 2.5 h, 3 h, 4 h, 6 h, 8 h, 10 h, and 24 h time points after administration. Briefly, 12 time-point plasma samples from rats dosed intravenously and 13 time-point plasma samples from rats dosed orally were collected. Plasma samples were separated immediately by centrifugation of the blood samples at 13,000 rpm for 3 min and kept at −80 °C until analysis. The samples were processed following the procedure in Section 3.3.3. Three replicates for each time point were analyzed and the results were reported as mean values with standard deviation (SD) for each time point.
The pharmacokinetic parameters for each rat were estimated using Phoenix WinNonlin v8.3 software (Pharsight Corporation, Mountain View, CA, USA). Non-compartmental analysis was used to determine the pharmacokinetic parameters of MPI8. The pharmacokinetic parameters, including the area under the plasma concentration–time curve during the period of measurable observation (AUC0−10h), the area under the plasma concentration–time curve extrapolated to infinity (AUC0−inf), the apparent volume of distribution (Vz/F), the apparent clearance (CL/F), the total body mean residence time (MRT), and the terminal elimination half-life (T1/2) were estimated. The oral bioavailability (F) was calculated according to the following equation:(1) F=AUCoral×Dosei.v./AUCi.v.×Doseoral

Data set [4] has as its system SARS-CoV-2 (USA-WA1/2020). Also on record: method as in PMID 35229034. The conditions noted are these: SARS-CoV-2 (USA-WA1/2020) in Vero E6 cells; read-out: EC50 to neutralize SARS-CoV-2; cited from earlier work.
Data set [5] is classed as physicochemical. The conditions noted are these: 1 mg/mL in acetonitrile, −80 °C.
On the set-up of data set [6]: method as in PMID 22915796, PMID 27027316. The conditions noted are these: aldehyde bisulfite prodrug; cited from earlier work.
Where [7] appears, read: Auto-sampler (10 °C 24 h), nominal 1.5 ng/mL.
Setting [8] is: Auto-sampler (10 °C 24 h), nominal 25 ng/mL.
Where [9] appears, read: Auto-sampler (10 °C 24 h), nominal 400 ng/mL.
The mark [10] stands for this setting: Bench top (4 h, 4 °C), nominal 1.5 ng/mL.
[11] abbreviates: Bench top (4 h, 4 °C), nominal 25 ng/mL.
The mark [12] stands for this setting: Bench top (4 h, 4 °C), nominal 400 ng/mL.
Where [13] appears, read: Freeze and thaw (−80 °C to 4 °C, 3 cycles), nominal 1.5 ng/mL.
[14] abbreviates: Freeze and thaw (−80 °C to 4 °C, 3 cycles), nominal 25 ng/mL.
Setting [15] is: Freeze and thaw (−80 °C to 4 °C, 3 cycles), nominal 400 ng/mL.
The mark [16] stands for this setting: Long-term (−80 °C, 20 days), nominal 1.5 ng/mL.
[17] abbreviates: Long-term (−80 °C, 20 days), nominal 400 ng/mL.
Where [18] appears, read: male, Sprague-Dawley, in vivo, iv, rat, i.v. 5 mg/kg MPI8 sulfonate, NCA.
The mark [19] stands for this setting: male, Sprague-Dawley, in vivo, rat, oral 50 mg/kg MPI8 sulfonate, NCA.
The mark [20] stands for this setting: rat, i.v. 5 mg/kg MPI8 sulfonate, NCA.

“Also recorded” adds a separate entry of the source. Like-named read-outs stand apart in the source and are kept apart here.

The text below walks through data of article PMC9228185, “Accurate Mass Identification of an Interfering Water Adduct and Strategies in Development and Validation of an LC-MS/MS Method for Quantification of MPI8, a Potent SARS-CoV-2 Main Protease Inhibitor, in Rat Plasma in Pharmacokinetic Studies” (Pharmaceuticals, 2022).

Take `CC(OC(C)(C)C)C(NC(=O)OCc1ccccc1)C(=O)NC(CC1CCCCC1)C(=O)NC(C=O)CC1CCNC1=O` (stereo not drawn) [MPI8]: the “Potency toward cathepsin L” value in data set [1] was “potent”. In addition, the “Calculated concentration (Mean ± SD)” value is given as 1.44 ± 0.11 ng/mL in data set [2] (setting [7]); 26.8 ± 1.91 ng/mL in data set [2] (setting [8]); 458.5 ± 47.18 ng/mL in data set [2] (setting [9]); 1.35 ± 0.11 ng/mL in data set [2] (setting [10]); 21.3 ± 0.12 ng/mL in data set [2] (setting [11]); 340.25 ± 14.03 ng/mL in data set [2] (setting [12]). Besides, the “Calculated concentration (Mean ± SD)” value in data set [2] (setting [13]) was 1.33 ± 0.08 ng/mL; in data set [2] (setting [14]) it was 23.5 ± 1.41 ng/mL; in data set [2] (setting [15]), 362.2 ± 11.56 ng/mL; in data set [2] (setting [16]) it was 1.44 ± 0.19 ng/mL; in data set [2] (Long-term (−80 °C, 20 days), nominal 25 ng/mL), 25.18 ± 1.37 ng/mL; in data set [2] (setting [17]) it was 399 ± 17.61 ng/mL. Also, the “Stability accuracy (RE%)” value in data set [2] (setting [7]) was −4.33%; in data set [2] (setting [8]), 7.20%; in data set [2] (setting [9]) it was 14.63%; in data set [2] (setting [10]), −9.87%; in data set [2] (setting [11]), −14.80%; in data set [2] (setting [12]) it was −14.94%. For the same molecule, the “Stability accuracy (RE%)” value is listed as −11.17% in data set [2] (setting [13]); −6.00% in data set [2] (setting [14]); −9.45% in data set [2] (setting [15]); −4.22% in data set [2] (setting [16]); −0.25% in data set [2] (setting [17]). For the same molecule, the “Degradation under the experimental conditions” value in data set [2] (conditions of Table 4) was “No significant degradation”. For the same molecule, in data set [2] (room temperature), the “Stability at room temperature in rat plasma” value is on record as “not stable”. For the same molecule, the “Bench top stability accuracy (RE%)” value in data set [2] (room temperature, 50 ng/mL, n = 4) is −27.6%. In addition, the C0 at 2 min in data set [3] (male, Sprague-Dawley, in vivo, iv, rat, i.v. 5 mg/kg MPI8 sulfonate, 2 min after dosing, read-out: Mean initial plasma concentration) amounted to 4480 ng/mL. Moreover, in data set [3] (male, Sprague-Dawley, in vivo, iv, rat, i.v. 5 mg/kg MPI8 sulfonate, 10 h post-dose, read-out: Mean plasma concentration), the concentration at 10 h worked out at 1.24 ng/mL. Also, the values for the AUC(0-inf) in data set [3] (setting [18]) and in data set [3] (setting [19]) were 618 ± 15.7 ng·h/mL and 1180 ± 288 ng·h/mL, respectively. Further, the MRT worked out at 0.54 ± 0.1 h in data set [3] (setting [18]) and 2.52 ± 0.16 h in data set [3] (setting [19]). Further, the half-life is 2.75 ± 0.53 h in data set [3] (setting [18]) and 1.22 ± 0.46 h in data set [3] (setting [19]). Besides, the AUC(0-t) came to 613 ± 15.4 ng·h/mL in data set [3] (setting [18]) and 1180 ± 290 ng·h/mL in data set [3] (setting [19]). For the same molecule, the Tmax in data set [3] (male, Sprague-Dawley, in vivo, rat, oral 50 mg/kg MPI8 sulfonate, NCA, no unit in table (h)) stood at 2.17 ± 0.58 h. In addition, the CL/F in data set [3] (male, Sprague-Dawley, in vivo, rat, oral 50 mg/kg MPI8 sulfonate, NCA, read-out: CL/F (converted)) was 733 mL/min/kg; in data set [3] (setting [20]), 110.116 ± 3.5637 mL/min/kg. In addition, the Vd/F in data set [3] (male, Sprague-Dawley, in vivo, rat, oral 50 mg/kg MPI8 sulfonate, NCA, read-out: Vz/F) stood at 81.6 L/kg. Further, in data set [3] (male, Sprague-Dawley, rat, in vivo, 50 mg/kg, rat, oral 50 mg/kg vs i.v. 5 mg/kg MPI8 sulfonate, read-out: F (oral bioavailability)), the bioavailability is 15.8%. The Cmax in data set [3] (male, Sprague-Dawley, rat, in vivo, 50 mg/kg, oral 50 mg/kg MPI8 sulfonate) came to 601 ng/mL; in data set [3] (male, Sprague-Dawley, rat, in vivo, 50 mg/kg, oral 50 mg/kg MPI8 sulfonate, NCA, no unit in table (ng/mL)), 601 ± 75 ng/mL. Besides, the Vz/F in data set [3] (setting [20]) is recorded as 26,324.66 ± 5882.81 ml/kg. Further, the Plasma concentration entry in data set [3] (rat, i.v. 5 mg/kg MPI8 sulfonate, by 24 h) was “undetectable”. The EC50 in data set [4] is 30 nM. For the same molecule, in data set [5], the “Stock solution stable for” value was 3 months.
Consider `CC(OC(C)(C)C)C(NC(=O)OCc1ccccc1)C(=O)NC(CC1CCCCC1)C(=O)NC(CC1CCNC1=O)C(O)S(=O)(=O)O` (stereo not drawn) [MPI8 sulfonate], for which the “Conversion of prodrug to MPI8 in vivo” value in data set [3] (in vivo, rats) is on record as “rapid conversion; also recorded: rapidly converts”.
In the case of `Cc1cc(=O)n(-c2ccccc2)n1C` [AP, antipyrine, reference compound], the “Stock solution stable for” value in data set [5] came to 12 months.
`CC(C)C[C@H](NC(=O)OCc1ccccc1)C(=O)N[C@@H](C[C@@H]1CCNC1=O)C(O)S(=O)(=O)[O-].[Na+]` (stereo partly drawn) [GC376]: the “Conversion into active aldehyde form” value in data set [6] is given as “quickly convert”.

The term AUC(0-inf) denotes total exposure, with the tail of the curve extrapolated. Broadly, the MRT is a mean duration of stay, worked out from the concentration-time curve. Broadly, the half-life is how long it takes for the measured level to halve. The Tmax is the time from dosing to the highest level. As a reminder, the bioavailability is dose-corrected exposure relative to a reference, in per cent. A word on the Cmax: it is the highest concentration seen after dosing. What is called EC50 is the midpoint of the concentration-response curve.
